Read-outs that look alike come from different tables or passages of the source. Marks after values point to notes of the source that are not given here.

For data set [1], the system named is third stage larvae of Haemonchus contortus. Description: Haemonchus contortus, Larvae Stage 3 (HcL3) In Vitro Assay. Format: cell-based. As to conditions: for minimal effective concentration: Haemonchus contortus, 96 h; for HcL3 MED: Minimum Effective Dose, H. contortus third stage larvae, approximately 96 hours.
The subject of data set [2] is D. immitis L4 larvae. Description: Dirofilaria immitis, L4 Stage (DiL4) In Vitro Assay. The class given is cell-based. The settings on record: for DiMf/DiL4: larval stage selectivity; for DiL4 MED: Minimum Effective Dose, D. immitis L4 larvae motility, in vitro.
For data set [3], the system named is microfilariae of Dirofilaria immitis. Description: Dirofilaria immitis, Microfilaria (DiMf) In Vitro Assay. Format: cell-based. The settings on record: for minimal effective concentration: Dirofilaria immitis, 72 h, read-out: DiMf MED, Minimum Effective Dose, D. immitis microfilariae motility, in vitro.
For data set [4], the system named is circulating microfilariae. Description: Heartworm Positive Dog Studies. The settings on record: oral, emodepside 1 mg/kg, Example 3-9 3 mg/kg.
Where [5] appears, read: read-out: HcL3 MED (symbol after Ex#), approximately 96 hours incubation, multiple-resistant field isolate.

`COc1cc(C)c(Cc2ccc(C[C@H]3OC(=O)[C@H](CC(C)C)N(C)C(=O)[C@@H](C)OC(=O)[C@H](CC(C)C)N(C)C(=O)[C@@H](Cc4ccccc4)OC(=O)[C@H](CC(C)C)N(C)C(=O)[C@@H](C)OC(=O)[C@H](CC(C)C)N(C)C3=O)cc2)cn1` [Example 4-126, (3S,6R,9S,12R,15S,18R,21S,24R)-6-benzyl-3,9,15,21-tetraisobutyl-18-(4-((6-methoxy-4-methylpyridin-3-yl)methyl)benzyl)-4,10,12,16,22,24-hexamethyl-1,7,13,19-tetraoxa-4,10,16,22-tetraazacyclotetracosan-2,5,8,11,14,17,20,23-octaone]: the minimal effective concentration in data set [1] (setting [5]) was 1 to 3.3 µM; in data set [1] (read-out: HcL3 MED, Minimum Effective Dose, H. contortus third stage larvae, approximately 96 hours) it was 1.8 µM; in data set [2] (Dirofilaria immitis, 72 h, read-out: DiL4 MED, Minimum Effective Dose, D. immitis L4 larvae motility, in vitro), 0.0002 µM; in data set [3] it was 0.003 µM. In addition, the DiMf/DiL4 in data set [2] (ratio of DiMf MED to DiL4 MED) amounted to 15.
On to `Cc1ncccc1Cc1ccc(C[C@H]2OC(=O)[C@H](CC(C)C)N(C)C(=O)[C@@H](C)OC(=O)[C@H](CC(C)C)N(C)C(=O)[C@@H](Cc3ccccc3)OC(=O)[C@H](CC(C)C)N(C)C(=O)[C@@H](C)OC(=O)[C@H](CC(C)C)N(C)C2=O)cc1` [Example 4-139], for which the “HcL3 MED” value in data set [1] was 1 µM. The “HcL3 MED (symbol after Ex#)” value in data set [1] (approximately 96 hours incubation, multiple-resistant field isolate) is given as 4-139* (Examples with an asterisk (*) have HcL3 MED values≤1 μM). For the same molecule, the “DiL4 MED” value in data set [2] stood at 0.4 nM. Also, the DiMf/DiL4 in data set [2] (ratio of DiMf MED to DiL4 MED) is 2.5. In addition, the “DiMf MED” value in data set [3] (Minimum Effective Dose, D. immitis microfilariae motility, in vitro) is recorded as 1 nM.
In the case of `Cc1cnsc1Cc1ccc(C[C@H]2OC(=O)[C@H](CC(C)C)N(C)C(=O)[C@@H](C)OC(=O)[C@H](CC(C)C)N(C)C(=O)[C@@H](Cc3ccc(Cc4sncc4C)cc3)OC(=O)[C@H](CC(C)C)N(C)C(=O)[C@@H](C)OC(=O)[C@H](CC(C)C)N(C)C2=O)cc1` [Example 4-141, (3S,6R,9S,12R,15S,18R,21S,24R)-3,9,15,21-tetraisobutyl-4,6,10,16,18,22-hexamethyl-12,24-bis(4-((4-methylisothiazol-5-yl)methyl)benzyl)-1,7,13,19-tetraoxa-4,10,16,22-tetraazacyclotetracosan-2,5,8,11,14,17,20,23-octaone], the values for the minimal effective concentration in data set [1] (setting [5]) and in data set [3] were 1 to 3.3 µM and 0.003 µM, respectively. The “HcL3 MED” value in data set [1] (listed as (4-141)) was 1.8 µM. Besides, the “DiL4 MED” value in data set [2] (listed as (4-141)) worked out at 1 nM. In addition, in data set [2] (ratio of DiMf MED to DiL4 MED, listed as (4-141)), the DiMf/DiL4 was found to be 3.
As for `CC(C)C[C@H]1C(=O)O[C@H](Cc2ccc(N3CCOCC3)cc2)C(=O)N(C)[C@@H](CC(C)C)C(=O)O[C@H](C)C(=O)N(C)[C@@H](CC(C)C)C(=O)O[C@H](Cc2ccc(N3CCOCC3)cc2)C(=O)N(C)[C@@H](CC(C)C)C(=O)O[C@H](C)C(=O)N1C` [emodepside, Emodepside, reference compound], the “selectivity against D. immitis L4 (DiMf/DiL4)” value in data set [2] (ratio of DiMf MED to DiL4 MED) came out at 1 ×. Further, in data set [4] (heartworm positive dogs), the “adverse effects / clinical observations” value was “all treated dogs exhibited adverse effects consistent with dead or dying circulating microfilariae”. Also, the “Mean MF/mL, Day 0, Post-dose, 2 hours” value in data set [4] (heartworm positive dogs, 2 hours post-dose, blood) is given as 8,300 MF/mL. In data set [4] (heartworm positive dogs, Day 0 pre-dose, blood), the “Mean MF/mL, Day 0 Pre-dose” value was 61,000 MF/mL. For the same molecule, the “Mean MF/mL, Day 1” value in data set [4] (heartworm positive dogs, Day 1, blood) is given as 4,500 MF/mL. In addition, in data set [4] (heartworm positive dogs, Day 7, blood), the “Mean MF/mL, Day 7” value is reported as 8,800 MF/mL. The “% Reduction of MF, Day 0, Post-dose, 2 hours” value in data set [4] (vs pre-dose (day 0) levels, 2 hours post-dose) was determined as 87%; in data set [4] (vs pre-dose (day 0) levels, 2 hours post-dose, listed as Emodepside), 87%. In addition, the “% Reduction of MF, Day 1” value in data set [4] (vs pre-dose (day 0) levels, Day 1) is 93%. Further, the “% Reduction of MF, Day 7” value in data set [4] (vs pre-dose (day 0) levels, Day 7) was determined as 86%.

Values taken from patent publication US11771738B2 (Zoetis Services LLC, priority 2018, dated 2023).
